Patent EP1965829B1, “ALTERNATIVE OXIDASE AND USES THEREOF” (Tampereen yliopisto, priority 2005, dated 2007)

Legend:
[1] = system: Flp-In™ T-REx™-293 cells; assay: Succinate oxidation by digitonin-permeabilized cells, Clark oxygen electrode; format: cell-based, human; details: AOX-induced cells
[2] = system: Flp-In™ T-REx™-293 cells; assay: Respiration of digitonin-permeabilized transduced or transfected cells; format: cell-based, human; details: 10 µM n-propyl gallate
[3] = system: Drosophila mitochondria; format: biochemical, Drosophila melanogaster

## CCCOC(=O)c1cc(O)c(O)c(O)c1 [n-propyl gallate]
[1]; 100 µM propyl gallate added after cyanide
  inhibition of cyanide-resistant succinate oxidation: fully inhibited
[1]; propyl gallate in the absence of cyanide
  inhibition of oxygen uptake: 5%
[2]; pWPI-AOX-transduced cells
  inhibition of residual respiration in the presence of cyanide: completely inhibited
[2]; pcDNA5-AOX-transfected cells
  inhibition of respiration in the presence of cyanide: almost completely inhibited
[3]
  effect of AOX inhibitors on respiration: only a small effect
  sensitivity of residual cyanide-insensitive respiratory activity to AOX inhibitors: sensitive
